Test results: patent US10265327B2, “V1A antagonists to treat phase shift sleep disorders” (Hoffmann-La Roche Inc., priority 2013, dated 2019)

Tested on: C57BL/6J mice
Test: Behavioural circadian responses (phase shift, period, alpha, locomotor activity) after single oral administration, release into constant darkness
Type: in vivo, mouse
Description: In all studies described below, male young-adult C57BL/6J mice (4 weeks old at the beginning of experiments) were used. Animals were exposed to a light-dark cycle (LD) 12:12 (lights on from 8 h to 20 h geographical time; light intensity at 200 lux; during dark period dim red light of 5 lux) in individual cages with food and water ad libitum and temperature (22±1° C.) and humidity (55%±5%) controlled. LD cycle was represented as zeitgeber times (ZT) where ZT0 represents the lights on and ZT12 lights off. When animals were exposed to constant darkness conditions (DD), circadian times (CT) were used as time point references, where CT12 corresponds to activity onset.
It was evaluated whether there is a phase window of sensitivity to the V1a receptor antagonist trans-8-chloro-5-methyl-1-(4-pyridin-2-yloxycyclohexyl)-4,6-dihydro-[1,2,4]triazolo[4,3-a][1,4]benzodiazepine (example 1). A group of animals was treated at 2 temporal points (one during the day and one at night). Animals were exposed to LD cycle conditions (at least for 10 days) to obtain a baseline of the rhythm of locomotor activity. 4 groups were selected: (group 1) Sham manipulations, animals into which the cannula was introduced in the oral cavity without any solution delivery; (group 2) vehicle, and […] administration of the V1a receptor antagonist trans-8-chloro-5-methyl-1-(4-pyridin-2-yloxycyclohexyl)-4,6-dihydro-[1,2,4]triazolo[4,3-a][1,4]benzodiazepine (doses of 10 mg/kg and 30 mg/kg). Administrations were performed (orally) at ZT/CT12 (lights off/activity onset; sham, n=5; vehicle n=5; 10 mg/kg n=5; and 30 mg/kg n=5). After the first manipulation at ZT/CT12, animals were immediately exposed to DD conditions and remained at least for 10 days more for behavioural analysis, and then re-entrained to a 12-12 LD cycle, for a minimum of 10 days, to be re-exposed to the second experimental manipulation at ZT/CT0 (lights on/activity offset; sham, n=3; vehicle n=3; 10 mg/kg n=5; and 30 mg/kg n=5).
A new group of animals was treated at another 2 temporal points different from the previous experiment; ZT/CT6 (6 h after lights on/mid rest period; sham, n=3; vehicle n=4; and 30 mg/kg n=5) and ZT/CT18 (6 h after lights off/mid activity period; sham, n=3; vehicle n=4; and 30 mg/kg n=5). For this experiment (time points ZT/CT6 and ZT/CT18), trans-8-chloro-5-methyl-1-(4-pyridin-2-yloxycyclohexyl)-4,6-dihydro-[1,2,4]triazolo[4,3-a][1,4]benzodiazepine was administrated only at the 30 mg/kg dose. Thus, 3 groups were selected: (Group 1) Sham manipulations, (Group 2) vehicle administrations and (Group 3) trans-8-chloro-5-methyl-1-(4-pyridin-2-yloxycyclohexyl)-4,6-dihydro-[1,2,4]triazolo[4,3-a][1,4]benzodiazepine (30 mg/kg). After manipulations, animals were immediately exposed to DD conditions and remained at least for 10 days more for behavioural analysis, and then re-entrained to a 12-12 LD cycle for a minimum of 10 days.
The locomotor activity rhythms were measured using infra-red detectors on the top of the cages and/or running wheels.
Phase shifts: Phase shifts were measured by fitting two regression lines to the onsets of locomotor activity for 10 days before and 10 days after the manipulation (ClockLab; Actimetrics, Evanston, Ill., USA). A computer algorithm was used to identify the onset of the main period of daily locomotor activity (ClockLab). The data collected on the day following the manipulation (sham, vehicle or drug administration) was excluded from the line fits to ensure that the circadian phase was in steady state. Phase shift was defined as the difference (in hours) between the pre-stimulus line and the post-stimulus line. The magnitude of the phase shifts was fitted by linear regression to the onsets, considering 10 cycles before (LD) and 10 cycles after compound administration when animals were released in constant darkness (DD; Aschoff Type II procedure to evaluate phase shifts; Mrosovsky, 1996b). […]

Structure (SMILES): CN1Cc2cc(Cl)ccc2-n2c(nnc2[C@H]2CC[C@H](Oc3ccccn3)CC2)C1 [Example 1, trans-8-chloro-5-methyl-1-(4-pyridin-2-yloxycyclohexyl)-4,6-dihydro-[1,2,4]triazolo[4,3-a][1,4]benzodiazepine]
- locomotor activity change after administration (10 mg/kg or 30 mg/kg oral, ZT/CT12 and ZT/CT0): No significant locomotor activity change
- endogenous period of locomotor activity (10 mg/kg or 30 mg/kg oral, ZT/CT12 and ZT/CT0, constant darkness): no changes
- endogenous period of locomotion (30 mg/kg oral, ZT/CT18 and ZT/CT6): not significantly different between groups
- alpha (duration of active period), difference between groups (30 mg/kg oral, ZT/CT18 or ZT/CT6): no differences between groups were observed
- behavioural phase shifts (circadian phase) (single administration 30 mg/kg oral, at ZT/CT18 and ZT/CT6): no significant effect on the circadian phase
- behavioural phase-shifts (circadian phase) (single oral administration, 10 mg/kg or 30 mg/kg, at ZT/CT12 and ZT/CT0): no effect on the circadian phase
- alpha increase (pre vs. post) (treated at ZT/CT0, 10 and 30 mg/kg oral, effect vs groups not statistically significant): ~2 h
- alpha (duration of active period), difference between groups (treated at ZT/CT12, 10 and 30 mg/kg oral): no differences between groups were observed
